# Values quoted from earlier work in PubChem BioAssay AID1259409 (Chemical Carcinogenesis Research Information System (CCRIS), 2018).
# Test system: rodent chemically induced tumor inhibition, incidence and multiplicity
# Test: CCRIS tumor inhibitor studies
# Details: Carcinogen: 7,12-DIMETHYLBENZ[A]ANTHRACENE, 57-97-6, Route [Inhibitor]: ORAL, Promoter: NONE USED
smiles,measurement,setting,value
O=[Se](O)O,"tumour outcome (control, treated, inhibition, significance)","Dose [Inhibitor]: 0, 0.5 UG/G IN DIET BEGINNING 2 WK PRIOR TO CARCINOGEN DOSE AND CONTINUING FOR 2 WK POST CARCINOGEN DOSE FOLLOWED BY BAS, Species: RAT, Strain/Sex: SPRAGUE-DAWLEY/FEMALE, Target Tissue: Type of Lesion: MAMMARY GLAND: TUMOR, Dose [Carcinogen]: 5 MG/KG","52%, 32%, 38%, not calculated"
same,"tumour outcome (control, treated, inhibition, significance)","Dose [Inhibitor]: 0, 1 UG/G IN DIET BEGINNING 2 WK PRIOR TO CARCINOGEN DOSE AND CONTINUING FOR 2 WK POST CARCINOGEN DOSE FOLLOWED BY BASAL, Species: RAT, Strain/Sex: SPRAGUE-DAWLEY/FEMALE, Target Tissue: Type of Lesion: MAMMARY GLAND: TUMOR, Dose [Carcinogen]: 5 MG/KG","52%, 24%, 54%, not calculated"
same,"tumour outcome (control, treated, inhibition, significance)","Dose [Inhibitor]: 0, 2 PPM (AS SELENIUM) IN DIET BEGINNING 2 WK PRIOR TO CARCINOGEN DOSE AND CONTINUING FOR DURATION OF STUDY (STUDY DURAT, Species: RAT, Strain/Sex: SPRAGUE-DAWLEY/FEMALE, Target Tissue: Type of Lesion: MAMMARY GLAND: ADENOCARCINOMA, Dose [Carcinogen]: 10 MG ONCE AT 55 D OF AGE","88%, 72%, 18%, not significant"
same,"tumour outcome (control, treated, inhibition, significance)","Dose [Inhibitor]: 0, 2 UG/G IN DIET BEGINNING 2 WK PRIOR TO CARCINOGEN DOSE AND CONTINUING FOR 2 WK POST CARCINOGEN DOSE FOLLOWED BY BASAL, Species: RAT, Strain/Sex: SPRAGUE-DAWLEY/FEMALE, Target Tissue: Type of Lesion: MAMMARY GLAND: TUMOR, Dose [Carcinogen]: 5 MG/KG","52%, 14%, 73%, not calculated"
same,"tumour outcome (control, treated, inhibition, significance)","Dose [Inhibitor]: 0, 2.5 MG/KG IN DIET TO ANIMALS ON VITAMIN E ADEQUATE DIETS (50 MG/KG) (STUDY DURATION: 20 WK), Species: RAT, Strain/Sex: SPRAGUE-DAWLEY/FEMALE, Target Tissue: Type of Lesion: MAMMARY GLAND: TUMOR, Dose [Carcinogen]: 5 MG ONCE AT 50 D OF AGE","19/25 (76%), 10/25 (40%), 47%, not calculated"
same,"tumour outcome (control, treated, inhibition, significance)","Dose [Inhibitor]: 0, 2.5 MG/KG IN DIET TO ANIMALS ON VITAMIN E DEFICIENT DIETS (10 MG/KG) (STUDY DURATION: 20 WK), Species: RAT, Strain/Sex: SPRAGUE-DAWLEY/FEMALE, Target Tissue: Type of Lesion: MAMMARY GLAND: TUMOR, Dose [Carcinogen]: 5 MG ONCE AT 50 D AGE","21/25 (84%), 17/25 (68%), 19%, not calculated"
same,"tumour outcome (control, treated, inhibition, significance)","Dose [Inhibitor]: 0, 3 PPM (AS SELENIUM) IN DIET BEGINNING 2 WK PRIOR TO CARCINOGEN DOSE AND CONTINUING FOR DURATION OF STUDY (STUDY DURAT, Species: RAT, Strain/Sex: SPRAGUE-DAWLEY/FEMALE, Target Tissue: Type of Lesion: MAMMARY GLAND: ADENOCARCINOMA, Dose [Carcinogen]: 10 MG ONCE AT 55 D OF AGE","88%, 52%, 41%, p<0.05"
same,"tumour outcome (control, treated, inhibition, significance)","Dose [Inhibitor]: 0, 3 UG/ML IN DRINKING WATER FROM 40-90 D OF AGE THEN 0, 2 UG/ML FROM 90-180 D OF AGE AND 0, 1 UG/ML FROM 180-240 D OF A, Dose [Inhibitor]: 0, 3 UG/ML IN DRINKING WATER FROM 40-90 D OF AGE THEN 0, 2 UG/ML FROM 90-180 D OF AGE AND 0, 1 UG/ML FROM 180-240 D OF A, Species: RAT, Strain/Sex: SPRAGUE DAWLEY/FEMALE, Target Tissue: Type of Lesion: MAMMARY GLAND: ADENOCARCINOMA, FIBROADENOMA, Dose [Carcinogen]: 5 MG IN 0.2 ML SESAME OIL 1/2 D FOR 12 D BEGINNING AT 50 D OF AGE","100%, 52%, 48%, p<0.001"
same,"tumour outcome (control, treated, inhibition, significance)","Dose [Inhibitor]: 0, 4 PPM IN DRINKING WATER BEGINNING 2 WK PRIOR TO CARCINOGEN DOSE AND CONTINUING FOR 1 WK POST CARCINOGEN DOSE (STUDY D, Species: RAT, Strain/Sex: SPRAGUE-DAWLEY/FEMALE, Target Tissue: Type of Lesion: MAMMARY GLAND: TUMOR, Dose [Carcinogen]: 10 MG IN 1 ML OLIVE OIL ONCE AT 7 WK OF AGE","19/21 (91%), 19/21 (91%), 0%"
same,"tumour outcome (control, treated, inhibition, significance)","Dose [Inhibitor]: 0, 4 UG/G IN DIET BEGINNING 2 WK PRIOR TO CARCINOGEN DOSE AND CONTINUING FOR 2 WK POST CARCINOGEN DOSE FOLLOWED BY BASAL, Species: RAT, Strain/Sex: SPRAGUE-DAWLEY/FEMALE, Target Tissue: Type of Lesion: MAMMARY GLAND: TUMOR, Dose [Carcinogen]: 5 MG/KG","52%, 10%, 81%, not calculated"
same,"tumour outcome (control, treated, inhibition, significance)","Dose [Inhibitor]: 0, 4 UG/G IN DIET BEGINNING 2 WK PRIOR TO CARCINOGEN DOSE AND CONTINUING FOR DURATION OF STUDY (STUDY DURATION: 43 WK), Species: RAT, Strain/Sex: SPRAGUE-DAWLEY/FEMALE, Target Tissue: Type of Lesion: MAMMARY GLAND: TUMOR, Dose [Carcinogen]: 5 MG/KG","52%, 5%, 90%, not calculated"
same,"tumour outcome (control, treated, inhibition, significance)","Dose [Inhibitor]: 0.2, 2 PPM IN DIET BEGINNING 3 D PRIOR TO CARCINOGEN DOSE AND CONTINUING FOR 8 MO (STUDY DURATION: 8 MO), Species: MOUSE, Strain/Sex: BALB/FEMALE, Target Tissue: Type of Lesion: MAMMARY GLAND: ADENOCARCINOMA, Dose [Carcinogen]: 1 MG/WK FOR 6 WK","12/31 (39%), 4/34 (12%), 69%, p<0.025"
same,"tumour outcome (control, treated, inhibition, significance)","Dose [Inhibitor]: 0.5 PPM IN 5% CORN OIL DIET DAILY STARTING 29 D BEFORE CARCINOGEN TREATMENT AND CONTINUING FOR DURATION OF STUDY (STUDY, Species: RAT, Strain/Sex: SPRAGUE-DAWLEY/FEMALE, Target Tissue: Type of Lesion: MAMMARY GLAND: ADENOCARCINOMA, Dose [Carcinogen]: 5 MG IN CORN OIL ONCE AT 50 D OF AGE","12/30 (40%), 11/30 (37%), 8%, not significant"
same,"tumour outcome (control, treated, inhibition, significance)","Dose [Inhibitor]: 0.5 PPM IN 25% CORN OIL DIET DAILY STARTING 29 D BEFORE CARCINOGEN TREATMENT AND CONTINUING FOR DURATION OF STUDY (STUDY, Species: RAT, Strain/Sex: SPRAGUE-DAWLEY/FEMALE, Target Tissue: Type of Lesion: MAMMARY GLAND: ADENOCARCINOMA, Dose [Carcinogen]: 5 MG IN CORN OIL ONCE AT 50 D OF AGE","21/30 (70%), 20/29 (69%), 1%, not significant"
same,"tumour outcome (control, treated, inhibition, significance)","Dose [Inhibitor]: 0.5 PPM IN DIET DAILY STARTING 1 WK PRIOR TO CARCINOGEN TREATMENT AND CONTINUING FOR DURATION OF STUDY (STUDY DURATION:, Species: MOUSE, Strain/Sex: BD2F1/FEMALE, Target Tissue: Type of Lesion: MAMMARY GLAND: TUMOR, Dose [Carcinogen]: 1 MG IN 0.2 ML COTTONSEED OIL 1/WK FOR 6 WK STARTING AT 8 WK OF AGE","18/32 (56%), 10/33 (30%), 46%, not calculated"
